Like-named read-outs stand apart in the source and are kept apart here.
Tests used:
p97 = p97 (Homo sapiens, UniProt P55072); test: p97 ATPase assay (Kinase Glo Plus; biomol green for compounds that interfere with luciferase); assay type: biochemical
Procedure: Assay Buffer (20 μL of 2.5× concentration, where 1×=50 mM Tris pH 7.4, 20 mM MgCl2, 1 mM EDTA, 0.5 mM TCEP) was dispensed into each well of a 96 well plate. Purified p97 (25 μL of 50 μM) was diluted in 975 μL, of 1× Assay Buffer and 10 μL was dispensed in each well. Test compound (10 μL) or 5% DMSO (10 μL) was then added to each well and the plate was incubated at room temperature for 10 min. The ATPase assay was carried out by adding to each well 10 μL of 500 μM ATP (pH 7.5), incubating at room temperature for 60 min, and then adding 50 μL Kinase Glo Plus reagent (Promega) followed by a final 10 min incubation at room temperature in the dark. Luminescence was read on an Analyst AD (Molecular Devices). Compounds were assayed at a range of concentrations (0, 0.048, 0.24, 1.2, 6, 30 μM) in triplicate. The percent of remaining activity for each reaction was calculated using the following mathematical expression: ((Test Compound-High Control)/(Low Control-High Control))*100. Test_Compound is defined as wells containing test compound, Low_Control is defined as wells containing DMSO, High_Control is defined as wells containing no p97 protein. […] The result was expressed as mean +/− standard error. For assays with Myriad 12 and 19, 100 μL of biomol green reagent (Enzo Life Sciences) was added to each well instead of kinase Glo Plus (Promega) and absorbance at 630 nm was measured. This was done because these compounds interfered with luciferase activity. […]

[1] = system: p97-dependent Ub^G76V-GFP degradation in HeLa cells; test: Ub^G76V-GFP degradation (turn-over) assay; assay type: cell-based, human; conditions: Homo sapiens, HeLa
Procedure: Ub^G76V-GFP Degradation Assay
Two GFP images with 100 ms exposure time per well were acquired and the average GFP intensity per area of a HeLa cell was determined by using MetaXpress software. Mean GFP intensity of 300-500 cells was calculated using Excel. Normalized GFP intensity was calculated using the following formula: (Test compound−Background)/(Basal GFP intensity—Background). Where: Test compound is defined as Mean GFP intensity of Ub^G76V-GFP-expressing cells treated with the test compound. Background is defined as background GFP intensity of HeLa cells. Basal GFP intensity is defined as mean GFP intensity of Ub^G76V-GFP-expressing cells treated with DMSO. […] The percent of remaining k for each compound is calculated using the following formula: (Test compound/DMSO control)*100. Where: Test_compound is defined as k determined from wells containing test compound, DMSO control is defined as k determined from wells containing DMSO.

[2] = purified p97, ATP, 60 min room temperature, mean +/- standard error
[3] = read-out: IC50 (μM) Ub^G76V-GFP turn over, Ub^G76V-GFP-expressing HeLa cells, degradation rate constant k from 90 to 180 min, mean +/- standard error
[4] = read-out: IC50 (μM) Ub^G76V-GFP turn over, p97-dependent Ub^G76V-GFP degradation turn-over assay

Sequence of p97 (P55072 2-806 limits assumed): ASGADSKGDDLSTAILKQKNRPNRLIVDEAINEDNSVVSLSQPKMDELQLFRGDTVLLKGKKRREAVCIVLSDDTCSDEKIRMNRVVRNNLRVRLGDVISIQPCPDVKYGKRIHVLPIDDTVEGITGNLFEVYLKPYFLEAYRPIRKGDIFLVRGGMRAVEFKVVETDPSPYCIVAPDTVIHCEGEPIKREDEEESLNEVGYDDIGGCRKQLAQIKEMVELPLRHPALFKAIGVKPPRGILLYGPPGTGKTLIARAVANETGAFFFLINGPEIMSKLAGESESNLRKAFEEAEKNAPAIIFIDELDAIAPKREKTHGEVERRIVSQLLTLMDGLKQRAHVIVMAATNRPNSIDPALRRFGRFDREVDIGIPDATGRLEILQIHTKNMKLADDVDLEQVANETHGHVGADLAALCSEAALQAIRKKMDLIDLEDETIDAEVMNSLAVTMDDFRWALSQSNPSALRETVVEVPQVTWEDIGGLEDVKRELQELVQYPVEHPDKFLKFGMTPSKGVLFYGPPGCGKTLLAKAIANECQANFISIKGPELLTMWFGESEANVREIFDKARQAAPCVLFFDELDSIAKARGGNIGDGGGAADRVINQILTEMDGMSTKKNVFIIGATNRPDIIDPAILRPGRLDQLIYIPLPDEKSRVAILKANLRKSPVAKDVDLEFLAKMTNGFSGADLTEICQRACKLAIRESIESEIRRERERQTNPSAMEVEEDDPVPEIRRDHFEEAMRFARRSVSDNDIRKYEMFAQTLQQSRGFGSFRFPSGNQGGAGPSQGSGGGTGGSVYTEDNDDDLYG

COc1cccc2c(NCc3ccccc3)nc(Nc3nc4ccccc4n3C)nc12 [XI-6] was tested, and the IC50 (p97; [2]) was 0.3 ± 0.07 µM and the IC50 [1, 3] was 7.8 ± 1.2 µM.
For COc1cccc2c(NCc3ccccc3)nc(NC(=O)N(C)C)nc12 [XI-7], the IC50 (p97; p97 ATPase assay) was 60 ± 23 µM and the IC50 [1, 4] was 37 ± 7 µM.
COc1cccc2c(NCc3ccccc3)nc(N3CCc4ccccc4C3)nc12 [XI-8] was tested, and the IC50 (p97; [2]) was 15 ± 3 µM and the IC50 [1, 3] was 7 ± 1.3 µM.
COc1cccc2c(NCc3ccccc3)nc(N(C)c3ccccc3)nc12 [XI-9] gave an IC50 (p97; p97 ATPase assay) of over 30 µM and an IC50 [1, 4] of 9.2 ± 1.2 µM.
COc1cccc2c(NCc3ccccc3)nc(Nc3ccccc3O)nc12 [XI-10] was tested, and the IC50 (p97; [2]) was 2.6 ± 0.4 µM and the IC50 [1, 3] was 2.8 ± 0.5 µM.
COc1cccc2c(NCc3ccccc3)nc(NC(C)c3ccccc3)nc12 (stereo not shown) [XI-11] gave an IC50 (p97; [2]) of 12 ± 5 µM and an IC50 [1, 3] of 2.1 ± 0.7 µM.
Work on COc1cccc2c(NCc3ccccc3)nc(N(C)Cc3ccccc3)nc12 [XI-12] yielded an IC50 (p97; [2]) of 7 ± 3 µM and an IC50 [1, 3] of over 20 µM.
In the case of COc1cccc2c(NCc3ccccc3)nc(NCC3CCCCC3)nc12 [XI-13], the IC50 (p97; [2]) is reported as 5.4 ± 0.9 µM and the IC50 [1, 3] is reported as 4.2 ± 1 µM.
Compound COc1cccc2c(NCc3ccccc3)nc(NCc3cncs3)nc12 [XI-15] has an IC50 (p97; [2]) of 11 ± 1 µM and an IC50 [1, 3] of 10 ± 3 µM.
In the case of COc1cccc2c(NCc3ccccc3)nc(Nc3cc(C)cc(F)c3)nc12 [XI-18], the IC50 (p97; [2]) is reported as 1.5 ± 0.2 µM and the IC50 [1, 3] is reported as 7.1 ± 0.5 µM.
Compound COc1cccc2c(NCc3ccccc3)nc(N3CCN(C(C)=O)CC3)nc12 [XI-19] has an IC50 (p97; p97 ATPase assay) of over 30 µM and an IC50 [1, 4] of over 20 µM.
COc1cccc2c(NCc3cncs3)nc(N3CCOc4ccccc43)nc12 [XII-1] was tested, and the IC50 (p97; p97 ATPase assay) was 38 ± 7 µM and the IC50 [1, 4] was 20 ± 3 µM.
COc1cccc2c(NCc3cccc(N(C)C)c3)nc(N3CCOc4ccccc43)nc12 [XII-2] showed an IC50 (p97; p97 ATPase assay) of 52 ± 10 µM and an IC50 [1, 4] of 19 ± 4 µM.
COc1cccc2c(NCc3ccc(F)cc3)nc(N3CCOc4ccccc43)nc12 [XII-4] gave an IC50 (p97; [2]) of 1.9 ± 0.4 µM and an IC50 [1, 3] of 3.7 ± 0.6 µM.
Compound COc1cccc2c(NCc3cccs3)nc(N3CCOc4ccccc43)nc12 [XII-5] has an IC50 (p97; [2]) of 1.2 ± 0.2 µM and an IC50 [1, 3] of 3 ± 0.6 µM.
For COc1cccc2c(NCC3CCCCC3)nc(N3CCOc4ccccc43)nc12 [XII-6], the IC50 (p97; [2]) was 7.4 ± 0.9 µM and the IC50 [1, 3] was 8.2 ± 1 µM.
Work on COc1cccc2c(NCc3ccccn3)nc(N3CCOc4ccccc43)nc12 [XII-7] yielded an IC50 (p97; [2]) of 19 ± 5 µM and an IC50 [1, 3] of 15 ± 4 µM.
COc1cccc2c(NCc3ccccc3O)nc(N3CCOc4ccccc43)nc12 [XII-8] showed an IC50 (p97; [2]) of 4.6 ± 1 µM and an IC50 [1, 3] of 6 ± 0.6 µM.
Compound COc1cccc2c(NCc3ccccc3N(C)C)nc(N3CCOc4ccccc43)nc12 [XII-9] has an IC50 (p97; p97 ATPase assay) of 47 ± 22 µM and an IC50 [1, 4] of 4.5 ± 0.5 µM.
Work on COc1cccc2c(NCc3ccc(O)cc3)nc(N3CCOc4ccccc43)nc12 [XII-10] yielded an IC50 (p97; [2]) of 2.4 ± 0.5 µM and an IC50 [1, 3] of 7.3 ± 1 µM.
COc1cccc2c(N3CCOc4ccccc43)nc(N3CCOc4ccccc43)nc12 [XII-11] showed an IC50 (p97; p97 ATPase assay) of over 30 µM and an IC50 [1, 4] of 8.1 ± 1.8 µM.
Nc1nc(CCl)nc(N(c2ccccc2)c2ccccc2)n1 [XIII] showed an IC50 (p97; [2]) of 13 ± 5 µM and an IC50 [1, 3] of 10 ± 2 µM.
CC(C)c1ccc(Nc2nc(N)nc(CCl)n2)cc1 [XIV] was tested, and the IC50 (p97; [2]) was 15 ± 5 µM and the IC50 [1, 3] was 14 ± 2.4 µM.
CCc1nc2ccccc2n1CC(=O)OCC(=O)C(C#N)=C1Nc2ccccc2N1 [XIX] gave an IC50 (p97; [2]) of 14 ± 6 µM and an IC50 [1, 3] of 7.2 ± 1.1 µM.
CC(C)Nc1nc(Nc2cccc(Cl)c2)nc2ccccc12 [XLII] showed an IC50 (p97; p97 ATPase assay) of over 30 µM and an IC50 [1, 4] of 11 ± 2 µM.
With COc1ccc(Nc2nc(N3CCN(c4ccc([N+](=O)[O-])cc4)CC3)nc3ccccc23)c(OC)c1 [XLIX] the IC50 (p97; p97 ATPase assay) was 43 ± 13 µM and the IC50 [1, 4] was 70 ± 16 µM.
COc1ccc(Nc2nc(N3CCN(S(=O)(=O)c4ccc(C)cc4)CC3)nc3ccccc23)cc1 [XLVIII] showed an IC50 (p97; p97 ATPase assay) of 22 ± 12 µM and an IC50 [1, 4] of 39 ± 18 µM.
Work on c1ccc(CNc2nc(N3CCN(c4ccccc4)CC3)nc3ccccc23)cc1 [XLVII] yielded an IC50 (p97; p97 ATPase assay) of 34 ± 11 µM and an IC50 [1, 4] of 35 ± 5 µM.
Compound CC(Nc1nc(N2CCOCC2)nc2ccccc12)c1ccccc1 (stereo not shown) [XLVI] has an IC50 (p97; p97 ATPase assay) of 34 ± 10 µM and an IC50 [1, 4] of 36 ± 0.3 µM.
